Source: US20120270237A9, “METHODS FOR THE IDENTIFICATION OF KINASE INTERACTING MOLECULES AND FOR THE PURIFICATION OF KINASE PROTEINS” (Cellzone AG, priority 2009, published 2012)

What was measured:
IRAK1 = IRAK1 (Homo sapiens, UniProt P51617); experiment: Competition binding assay in HL60 cell lysate, antibody detection; design: endogenous in cells; host or cells: HL60; details: dose response curve, anti-IRAK1 antibody
Description: (§1) The experiment was performed as described in example 7. The test compound (or DMSO as solvent control) and diluted cell lysate were added to the affinity matrix and incubated for two hours at 4° C. After washing, captured proteins were eluted with SDS-containing sample buffer. After spotting of eluate samples onto Nitrocellulose membranes IRAK1 was detected with an anti-IRAK1 antibody and IRAK4 with anti-IRAK4 antibody followed by incubation with a secondary fluorescently labeled detection antibody.
(§2) Various concentrations of test compounds were added to HL60 lysate samples and allowed to bind to the proteins contained in the lysate sample. At the same time the affinity matrix with the immobilized compound (FIG. 3, CZC31326) was added as well in order to capture proteins not bound to the test compound. After the incubation time the beads with captured proteins were separated from the lysate. Bound proteins were then eluted and the presence of IRAK1 and IRAK4 was detected and quantitavely determined using specific antibodies and the Odyssey Infrared Detection system. […]
(§3) The kinases in the eluates were detected and quantified by spotting on Nitrocellulose membranes and using a first antibody directed against the kinase of interest and a fluorescently labeled secondary antibody (anti-mouse or anti-rabbit IRDye™ antibodies from Rockland). […]

IRAK4 = target: T1, IRAK4 (Homo sapiens, UniProt Q9NWZ3); experiment: as above; design: endogenous in cells; host or cells: HL60; details: dose response curve, anti-IRAK4 antibody
T1 sequence (Q9NWZ3 1-460): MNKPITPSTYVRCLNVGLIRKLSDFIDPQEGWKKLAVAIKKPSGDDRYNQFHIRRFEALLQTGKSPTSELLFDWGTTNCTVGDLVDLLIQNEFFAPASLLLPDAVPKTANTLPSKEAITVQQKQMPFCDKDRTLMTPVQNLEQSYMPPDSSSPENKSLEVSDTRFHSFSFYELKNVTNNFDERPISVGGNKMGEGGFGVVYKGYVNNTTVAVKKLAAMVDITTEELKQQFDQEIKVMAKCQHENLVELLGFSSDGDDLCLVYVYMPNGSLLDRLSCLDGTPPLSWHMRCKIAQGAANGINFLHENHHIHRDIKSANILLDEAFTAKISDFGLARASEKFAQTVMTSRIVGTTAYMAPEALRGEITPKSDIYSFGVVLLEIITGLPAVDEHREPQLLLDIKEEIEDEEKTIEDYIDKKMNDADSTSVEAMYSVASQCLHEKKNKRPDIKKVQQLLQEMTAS
Description: as §1, §2, §3

BTK = BTK (Homo sapiens, UniProt Q06187); experiment: Kinobeads competition binding, L-363 cell lysate; design: capturing and identification of kinases from L-363 cell lysate; endogenous in cells; host or cells: L-363 cells, treated with MG132 before harvest; details: 10 μM free compound, L-363 lysate
Description: (§4) To one aliquot of cell lysate 10 μM of the free compound (FIG. 3, CZC31326) was added and allowed to bind to proteins in the lysate. Then the affinity matrix with the immobilized compound was added to capture proteins that were not interacting with the previously added free compound. Beads were separated from the lysate and bead bound proteins were eluted in SDS sample buffer and subsequently separated by SDS-Polyacrylamide gel electrophoresis (FIG. 8). Suitable gel bands were cut out and subjected to in-gel proteolytic digestion with trypsin. The second lysate aliquot was processed identically, however no free compound was added (DMSO solvent control). Peptides originating from samples 1 and 2 were labeled with iTRAQ reagents (iTRAQ 114 and iTRAQ 117) and the combined samples were analyzed with a nano-flow liquid chromatography system coupled online to a tandem mass spectrometer (LC-MS/MS) experiment followed by iTRAQ reporter ion quantification in the MS/MS spectra as described in Example 2.
(§5) For this experiment the human plasma cell leukaemia line L-363 was used (German Collection of Microorganisms and Cell Cultures, DSMZ number ACC49, Braunschweig, Germany). Cells were treated for three hours with 20 μM of the proteasome inhibitor MG132 (Z-Leu-Leu-Leu-al, Sigma C2211) prior to cell harvesting.

AAK1 = AAK1 (Homo sapiens, UniProt Q2M2I8); experiment: Kinobeads competition binding, L-363 cell lysate; design: capturing and identification of kinases from L-363 cell lysate; endogenous in cells; host or cells: L-363 cells, treated with MG132 before harvest; details: 10 μM free compound, L-363 lysate
Description: as §4, §5

Sequence of AAK1 (Q2M2I8 whole entry): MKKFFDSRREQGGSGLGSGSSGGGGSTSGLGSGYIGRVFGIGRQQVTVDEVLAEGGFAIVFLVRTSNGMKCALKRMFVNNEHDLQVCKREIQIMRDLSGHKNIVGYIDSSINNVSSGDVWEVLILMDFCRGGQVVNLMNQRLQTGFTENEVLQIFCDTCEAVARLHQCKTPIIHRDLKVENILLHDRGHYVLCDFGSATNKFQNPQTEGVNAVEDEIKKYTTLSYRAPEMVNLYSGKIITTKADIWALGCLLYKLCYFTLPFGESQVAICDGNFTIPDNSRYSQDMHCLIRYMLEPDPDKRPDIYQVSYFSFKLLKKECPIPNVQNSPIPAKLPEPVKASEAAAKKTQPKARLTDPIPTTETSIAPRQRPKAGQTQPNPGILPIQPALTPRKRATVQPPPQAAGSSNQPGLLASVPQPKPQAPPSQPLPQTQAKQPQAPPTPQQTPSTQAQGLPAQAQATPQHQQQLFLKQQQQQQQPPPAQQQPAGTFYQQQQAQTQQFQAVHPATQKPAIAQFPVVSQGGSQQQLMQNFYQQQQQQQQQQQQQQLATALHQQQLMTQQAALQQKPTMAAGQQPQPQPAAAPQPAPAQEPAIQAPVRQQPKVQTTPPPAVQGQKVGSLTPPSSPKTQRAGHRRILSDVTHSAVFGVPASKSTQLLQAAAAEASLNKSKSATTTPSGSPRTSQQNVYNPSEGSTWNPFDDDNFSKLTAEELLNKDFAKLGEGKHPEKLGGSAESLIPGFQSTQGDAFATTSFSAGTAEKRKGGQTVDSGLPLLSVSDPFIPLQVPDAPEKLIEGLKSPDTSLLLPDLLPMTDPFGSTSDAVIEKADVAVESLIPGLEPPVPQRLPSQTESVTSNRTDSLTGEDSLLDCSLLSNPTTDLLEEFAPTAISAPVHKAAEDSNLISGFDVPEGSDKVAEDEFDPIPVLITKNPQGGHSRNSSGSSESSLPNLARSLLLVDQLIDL
Sequence of BTK (Q06187 whole entry): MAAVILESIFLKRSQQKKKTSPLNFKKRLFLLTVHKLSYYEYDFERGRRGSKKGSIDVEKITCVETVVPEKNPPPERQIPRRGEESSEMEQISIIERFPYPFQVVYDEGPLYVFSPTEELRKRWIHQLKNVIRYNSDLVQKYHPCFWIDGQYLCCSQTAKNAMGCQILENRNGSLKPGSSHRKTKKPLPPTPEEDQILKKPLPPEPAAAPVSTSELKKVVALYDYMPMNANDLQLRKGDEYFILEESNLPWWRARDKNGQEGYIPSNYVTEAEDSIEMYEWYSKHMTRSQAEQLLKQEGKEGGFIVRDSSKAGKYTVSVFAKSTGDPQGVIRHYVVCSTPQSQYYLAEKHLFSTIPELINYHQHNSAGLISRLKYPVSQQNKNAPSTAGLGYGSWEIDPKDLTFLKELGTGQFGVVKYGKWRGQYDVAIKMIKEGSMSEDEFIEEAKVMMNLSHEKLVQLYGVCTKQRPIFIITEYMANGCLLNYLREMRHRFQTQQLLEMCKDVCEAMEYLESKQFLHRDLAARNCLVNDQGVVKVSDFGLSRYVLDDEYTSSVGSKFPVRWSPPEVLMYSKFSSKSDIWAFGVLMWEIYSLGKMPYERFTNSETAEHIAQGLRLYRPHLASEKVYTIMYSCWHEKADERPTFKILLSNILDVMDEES
Sequence of IRAK1 (P51617 whole entry): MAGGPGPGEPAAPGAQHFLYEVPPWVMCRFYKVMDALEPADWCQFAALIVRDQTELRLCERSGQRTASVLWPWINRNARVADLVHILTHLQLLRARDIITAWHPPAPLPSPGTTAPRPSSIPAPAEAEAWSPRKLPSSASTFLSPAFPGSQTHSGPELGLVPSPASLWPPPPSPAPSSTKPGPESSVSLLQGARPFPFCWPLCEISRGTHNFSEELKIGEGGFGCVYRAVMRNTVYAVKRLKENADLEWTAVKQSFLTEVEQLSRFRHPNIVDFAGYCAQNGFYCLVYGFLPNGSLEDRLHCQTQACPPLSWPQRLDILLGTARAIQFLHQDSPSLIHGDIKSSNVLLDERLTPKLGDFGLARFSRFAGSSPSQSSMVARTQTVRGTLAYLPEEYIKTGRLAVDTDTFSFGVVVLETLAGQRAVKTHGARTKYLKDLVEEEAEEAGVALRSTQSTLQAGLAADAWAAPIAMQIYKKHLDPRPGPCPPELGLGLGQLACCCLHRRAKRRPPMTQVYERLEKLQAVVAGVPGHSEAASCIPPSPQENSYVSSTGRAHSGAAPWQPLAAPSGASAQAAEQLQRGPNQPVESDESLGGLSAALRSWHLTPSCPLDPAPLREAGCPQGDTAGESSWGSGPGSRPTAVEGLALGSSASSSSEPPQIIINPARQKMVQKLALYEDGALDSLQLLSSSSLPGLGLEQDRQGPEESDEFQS

IC50 (IRAK1): 150 nM
IC50 (IRAK4): 40 nM
Competition % (BTK): 95.7%
inhibition at 10 µM (AAK1): 97.4%
Structure (SMILES): CS(=O)(=O)Nc1ccccc1Nc1nc(Nc2cccc(OCCN)c2)ncc1Cl [CZC31326, N-(2-(2-(3-(2-aminoethoxy)phenylamino)-5-chloropyrimidin-4-ylamino)phenyl)methanesulfonamide]
